The text below walks through data of patent US12240890B2, “Compositions and methods for treating and/or preventing pathogenic fungal infection and for maintenance of microbiome commensalism” (priority 2017, dated 2025).

For one test, the system named is PYY. The test is described as follows: ex vivo ileal tissue culture and PYY ELISA. On the set-up: species or system mice. The protocol:
Tissues were harvested from conventional or germ-free WT mice. Three cm sections of distal ileum were dissected from the mesentery and ligated on one end. Next, Krebs buffer (pH 7.4) was inoculated with either LPS (100 ng/mL) or Carbamoylcholine (10 um) and sealed in the ileal section and incubated in Krebs at 37° C. for 30 minutes. Next, the luminal solutions were retrieved and centrifuged at 3000×g for 3 minutes to remove particulate.
In general terms: An ELISA detects its analyte on a solid surface through an enzyme-linked reagent.

For another test, the system named is Candida albicans hyphae. The test is described as follows: propidium iodide hyphal permeability assay. It counts as cell-based. The conditions noted are these: N terminus FITC label, during PI assay. The protocol:
(§1) Candida albicans (sc3514 cited in: Romanowski et al. PLOS One 7: e30119, 2012.: incorporated by reference in its entirety) and Candida tropicalis (ATCC #13803) were maintained in frozen glycerol stocks at −80° C. and streaked out on yeast-peptone-dextrose (YPD) agar plates for 48 hours at 30° C. prior to use. Single colonies were selected and cultured in YPD media at 30° C. Biofilm assays were performed using crystal violet straining (Taff et al. Med Mycol 50:214-218, 2012.: incorporated by reference in its entirety) in the presence of 10-20 uM of respective peptides. To induce hyphal growth, strains were placed in YPD+5% FBS or RPMI media at 37° C. for 4 hours. To image hyphal membrane disruption, the DNA binding fluorescent dye, propidium iodide (PI), was added to wells strains in the presence of peptides and imaged under bright field and far red fluorescent conditions. […] To investigate Candida albican virulence gene expression, 10 μL of a 1.0 OD600 culture were placed in 1 mL RPMI at 37° C. with shaking for 8 hours. Cultures were centrifuged at 3000×g for 5 minutes and RNA isolation was performed as described below.
Magainin-2 compromises fungal growth by inserting into and permeabilizing the fungal cell wall. […] Permeabilization of the fungal cell wall was determined by uptake of propidium iodide (PI), a dye that is excluded by intact viable cells. […]

For a further test, the system named is C. tropicalis. Put plainly: respiration of C. tropicalis. It counts as cell-based, Candida tropicalis.
A further test relates to Candida albicans. The test is described as follows: Candida albicans culture growth. It counts as cell-based. Conditions: hyphal inducing conditions (broth culture containing serum).
Test [1] has as its system C. albicans strain SC5314. The test is described as follows: crystal violet based biofilm assay (24 hours, OD600). It counts as cell-based, Candida albicans. Conditions: crystal violet staining, 10-20 uM of respective peptides. The protocol: FIG. 13. […] Biofilm formation was measured in an assay that quantitates biofilms by staining with a crystal violet dye. The amount of dye absorbed by the biofilm positively correlates with amount of biofilm present. Amount of dye is measured via an optical density reading at a wavelength of 600 nm (OD600). Biofilm formation is measured over 24 hours in the presence or absence of peptides at 10, 30, or 40 uM concentrations.
as §1
Antifungal activity of peptides described in this application was tested by performing a crystal violet based biofilm assay. In this assay, Candida albicans is induced to form a biofilm in a 96-well plate for 24 hours in the presence or absence of peptide. Biofilm formation is quantitated through crystal violet staining and solubilization followed by optical density reading. […] Data are OD600 values normalized to appropriate within experiment vehicle control. Statistical analysis was performed via 2-Way ANOVA with multiple comparisons post-test. Significance is denoted by: *=p<0.05; **=p<0.01; ***-p<0.001; ****=p<0.0001. ns=not significant.

The subject of test [2] is Candida albicans virulence genes. Put plainly: virulence gene expression by qRT-PCR. It is filed as cell-based. Conditions: hyphal form, RPMI at 37° C., compared with scrambled peptide controls. The protocol:
as §1

For another test, the system named is C. albicans. The test is described as follows: respiration of C. albicans. It is filed as cell-based, Candida albicans.

Take LPS: the results for the “luminal PYY release” value with PYY (Germ-free (GF) tissues) and in the test with PYY (Specific-Pathogen Free (SPF) tissues) were “released only in response to Carb” and “released PYY”, respectively.

With “FITC-labeled PYY: fluorescently (N terminus FITC) labeled PYY”, in the test with Candida albicans hyphae, the “localization of labeled peptide” value is reported as “localized exclusively to the same terminal hyphal cells that take up PI”.

As to Magainin-2, the respiration entry is reported as “suppressed respiration” with C. tropicalis (hyphal form), “suppressed activity” with C. tropicalis (yeast form), “suppressed respiration” in the test on C. albicans (hyphal form) and “suppressed activity” in the test with C. albicans (yeast form). The “C. albicans culture growth” value in the test on Candida albicans is listed as “inhibited culture growth”. Besides, the “inhibition of biofilm formation” value in test [1] is recorded as “inhibit biofilm formation”. Besides, the virulence gene expression entry in test [2] was “induced expression of several virulence genes”.
